Experimental data reported in ChEMBL document CHEMBL1201862, “PubChem BioAssay data set” (2004).
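Exposure lasted 48 hours, with cells grown in 96-well plates and compounds tested at five concentrations. GI50: concentration for 50% inhibition of growth.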 Activity calls are given as the source filed them. No stated cut-off is given here; in the data, active = GI50 up to about 1.1 µM and inactive = higher.

Assays:
Assay in all cases: DTP human tumour cell line panel, 48 h
[1] = test system: Hs-578T
[2] = test system: HOP-92
[3] = test system: SK-MEL-2
[4] = test system: SF-268
[5] = test system: M14
[6] = test system: CAKI-1
[7] = test system: HT-29
[8] = test system: RPMI-8226
[9] = test system: SN12C
[10] = test system: SK-MEL-28
[11] = test system: UACC-62
[12] = test system: UO-31
[13] = test system: HCT-15
[14] = test system: A498
[15] = test system: TK-10
[16] = test system: UACC-257
[17] = test system: SF-539
[18] = test system: MDA-N
[19] = test system: MCF7
[20] = test system: SK-MEL-5

`CCCCCCCCCCCCCC(=O)N(CCCCCCCCC)CC(O)C(O)C(OC1OC(CO)C(O)C(O)C1O)C(O)CO` (centres undefined) was tested, and the GI50 [1] was 22.5 µM (inactive), the GI50 [2] was 17.3 µM (inactive) and the GI50 [3] was 24.6 µM (inactive). The GI50 [4] was 19.1 µM (inactive), the GI50 [5] was 20.1 µM (inactive) and the GI50 [6] was 16.9 µM (inactive). The GI50 [7] was 18.5 µM (inactive), the GI50 [8] was 29.9 µM (inactive) and the GI50 [9] was 19.8 µM (inactive). For the same compound, the GI50 [10] was 18.1 µM (inactive), the GI50 [11] was 20.7 µM (inactive) and the GI50 [12] was 19.1 µM (inactive). The GI50 [13] was 23.6 µM, the GI50 [14] was 21.2 µM (inactive) and the GI50 [15] was 18.6 µM (inactive). The GI50 [16] was 17.1 µM (inactive), the GI50 [17] was 22 µM (inactive) and the GI50 [18] was 21.6 µM (inactive). The GI50 [19] was 36.5 µM (inactive) and the GI50 [20] was 19.5 µM (inactive).

With `CCC1(O)CC2CC(=O)OC2C1O` (centres undefined) the GI50 [1] was > 100 µM (inactive), the GI50 [2] was > 100 µM (inactive) and the GI50 [3] was > 100 µM (inactive). The GI50 [4] was > 100 µM (inactive), the GI50 [5] was > 100 µM (inactive) and the GI50 [6] was > 100 µM (inactive). For the same compound, the GI50 [7] was > 100 µM (inactive), the GI50 [8] was > 100 µM (inactive) and the GI50 [10] was > 100 µM (inactive). For the same compound, the GI50 [11] was > 100 µM (inactive), the GI50 [12] was > 100 µM (inactive) and the GI50 [13] was greater than 100 µM. The GI50 [14] was > 100 µM (inactive), the GI50 [15] was > 100 µM (inactive) and the GI50 [16] was > 100 µM (inactive). The GI50 [17] was > 100 µM (inactive), the GI50 [18] was > 100 µM (inactive) and the GI50 [19] was > 100 µM (inactive). For the same compound, the GI50 [20] was > 100 µM (inactive).

In the case of `COc1ccc(/N=C(/SS/C(=N/c2ccc(OC)cc2)c2ccc([N+](=O)[O-])o2)c2ccc([N+](=O)[O-])o2)cc1`, the GI50 [1] is reported as 2.19 µM (inactive), the GI50 [2] is reported as 3.53 µM (inactive) and the GI50 [3] is reported as 2.08 µM (inactive). For the same compound, the GI50 [4] was 1.89 µM (inactive), the GI50 [5] was 1.7 µM (inactive) and the GI50 [6] was 1.92 µM (inactive). The GI50 [7] was 0.701 µM (active), the GI50 [8] was 0.489 µM (active) and the GI50 [9] was 1.95 µM (inactive). For the same compound, the GI50 [10] was 2.49 µM (inactive), the GI50 [11] was 1.28 µM (inactive) and the GI50 [12] was 1.24 µM (inactive). The GI50 [13] was 0.489 µM, the GI50 [14] was 12.4 µM (inactive) and the GI50 [15] was 2.38 µM (inactive). The GI50 [16] was 2.06 µM (inactive), the GI50 [17] was 1.49 µM (inactive) and the GI50 [18] was 2.07 µM (inactive). For the same compound, the GI50 [19] was 0.51 µM (active) and the GI50 [20] was 5.75 µM (inactive).

`Cc1c2c(c(C)n1-c1ccccc1)C(=O)N(CCCCN1CCN(c3ccccc3)CC1)C2=O` was tested, and the GI50 [1] was 20.2 µM (inactive), the GI50 [2] was 8.17 µM (inactive) and the GI50 [3] was 22.3 µM (inactive). The GI50 [4] was 37.8 µM (inactive), the GI50 [5] was 9.53 µM (inactive) and the GI50 [6] was 31.1 µM (inactive). For the same compound, the GI50 [7] was 2.57 µM (inactive), the GI50 [8] was 7.52 µM (inactive) and the GI50 [9] was 13.1 µM (inactive). The GI50 [11] was 15.8 µM (inactive), the GI50 [12] was 4.17 µM (inactive) and the GI50 [13] was 7.74 µM. The GI50 [14] was 26.1 µM (inactive), the GI50 [15] was 30.2 µM (inactive) and the GI50 [16] was 5.36 µM (inactive). The GI50 [17] was 12 µM (inactive), the GI50 [18] was 9.57 µM (inactive) and the GI50 [19] was 9.42 µM (inactive). The GI50 [20] was 3.7 µM (inactive).

With `CC#CCOC(=O)c1ccccc1OC(C)=O` the GI50 [1] was > 100 µM (inactive), the GI50 [2] was > 100 µM (inactive) and the GI50 [3] was > 100 µM (inactive). The GI50 [4] was > 100 µM (inactive), the GI50 [5] was > 100 µM (inactive) and the GI50 [6] was > 100 µM (inactive). The GI50 [8] was > 100 µM (inactive), the GI50 [9] was > 100 µM (inactive) and the GI50 [11] was > 100 µM (inactive). For the same compound, the GI50 [12] was > 100 µM (inactive), the GI50 [13] was greater than 100 µM and the GI50 [14] was > 100 µM (inactive). For the same compound, the GI50 [15] was > 100 µM (inactive), the GI50 [16] was > 100 µM (inactive) and the GI50 [17] was > 100 µM (inactive). The GI50 [18] was > 100 µM (inactive), the GI50 [19] was > 100 µM (inactive) and the GI50 [20] was > 100 µM (inactive).

`CCOC(=O)Cn1nc2ccc(Nc3c(C)[n+]([O-])c4cc(F)c(OCC)cc4[n+]3[O-])cc2n1` was tested, and the GI50 [1] was 40.7 µM (inactive), the GI50 [2] was 18.2 µM (inactive) and the GI50 [3] was 16.8 µM (inactive). The GI50 [4] was 50.9 µM (inactive), the GI50 [5] was > 100 µM (inactive) and the GI50 [6] was > 100 µM (inactive). The GI50 [7] was > 100 µM (inactive), the GI50 [8] was > 100 µM (inactive) and the GI50 [10] was > 100 µM (inactive). For the same compound, the GI50 [12] was > 100 µM (inactive), the GI50 [13] was greater than 100 µM and the GI50 [14] was > 100 µM (inactive). For the same compound, the GI50 [15] was 27.5 µM (inactive), the GI50 [16] was > 100 µM (inactive) and the GI50 [17] was 83 µM (inactive). For the same compound, the GI50 [18] was > 100 µM (inactive), the GI50 [19] was > 100 µM (inactive) and the GI50 [20] was > 100 µM (inactive).

In the case of `CCCCCCCC(CC(=O)O)OC(=O)CC(CCCCCCC)OC1OC(C)C(O)C(O)C1OC1OC(C)C(O)C(O)C1O` (centres undefined), the GI50 [1] is reported as 67.6 µM (inactive), the GI50 [2] is reported as > 100 µM (inactive) and the GI50 [3] is reported as > 100 µM (inactive). For the same compound, the GI50 [4] was > 100 µM (inactive), the GI50 [5] was > 100 µM (inactive) and the GI50 [6] was > 100 µM (inactive). For the same compound, the GI50 [7] was > 100 µM (inactive), the GI50 [8] was > 100 µM (inactive) and the GI50 [9] was > 100 µM (inactive). The GI50 [10] was 44.6 µM (inactive), the GI50 [11] was > 100 µM (inactive) and the GI50 [12] was > 100 µM (inactive). For the same compound, the GI50 [13] was greater than 100 µM, the GI50 [14] was > 100 µM (inactive) and the GI50 [16] was > 100 µM (inactive). For the same compound, the GI50 [17] was 39 µM (inactive), the GI50 [18] was > 100 µM (inactive) and the GI50 [19] was > 100 µM (inactive). For the same compound, the GI50 [20] was > 100 µM (inactive).

`COc1cc(-c2c[nH]c3ccccc23)nc(-c2c[nH]c3ccccc23)n1` was tested, and the GI50 [1] was 16.3 µM (inactive), the GI50 [2] was 2.34 µM (inactive) and the GI50 [3] was 4.94 µM (inactive). For the same compound, the GI50 [4] was 14.7 µM (inactive), the GI50 [5] was 4.07 µM (inactive) and the GI50 [6] was 5.89 µM (inactive). The GI50 [7] was 3.63 µM (inactive), the GI50 [8] was 2.8 µM (inactive) and the GI50 [11] was 6.18 µM (inactive). The GI50 [12] was 5.53 µM (inactive), the GI50 [13] was 5.61 µM and the GI50 [14] was 2.3 µM (inactive). The GI50 [15] was 7.98 µM (inactive), the GI50 [16] was 8.91 µM (inactive) and the GI50 [17] was 7.14 µM (inactive). For the same compound, the GI50 [18] was 4.05 µM (inactive), the GI50 [19] was 3.56 µM (inactive) and the GI50 [20] was 5 µM (inactive).

For `O=c1oc2ccccc2cc1P(=O)(O)O`, the GI50 [1] was > 100 µM (inactive), the GI50 [2] was > 100 µM (inactive) and the GI50 [3] was > 100 µM (inactive). The GI50 [4] was > 100 µM (inactive), the GI50 [5] was > 100 µM (inactive) and the GI50 [6] was > 100 µM (inactive). The GI50 [7] was > 100 µM (inactive), the GI50 [8] was > 100 µM (inactive) and the GI50 [9] was > 100 µM (inactive). For the same compound, the GI50 [10] was > 100 µM (inactive), the GI50 [11] was > 100 µM (inactive) and the GI50 [13] was greater than 100 µM. For the same compound, the GI50 [14] was > 100 µM (inactive), the GI50 [15] was > 100 µM (inactive) and the GI50 [16] was > 100 µM (inactive). For the same compound, the GI50 [17] was > 100 µM (inactive), the GI50 [18] was > 100 µM (inactive) and the GI50 [19] was > 100 µM (inactive). The GI50 [20] was > 100 µM (inactive).

`COc1cc2c(cc1[N+](=O)[O-])C(=O)C(Br)(Br)CCC2` was tested, and the GI50 [1] was 5.75 µM (inactive), the GI50 [2] was 4.46 µM (inactive) and the GI50 [3] was 2.13 µM (inactive). For the same compound, the GI50 [4] was 4.14 µM (inactive), the GI50 [5] was 2.12 µM (inactive) and the GI50 [6] was 2.92 µM (inactive). For the same compound, the GI50 [7] was 4.88 µM (inactive), the GI50 [8] was 1.8 µM (inactive) and the GI50 [9] was 2.21 µM (inactive). For the same compound, the GI50 [11] was 3.43 µM (inactive), the GI50 [12] was 1.61 µM (inactive) and the GI50 [13] was 1.66 µM. For the same compound, the GI50 [14] was 15.3 µM (inactive), the GI50 [15] was 2.54 µM (inactive) and the GI50 [16] was 13.6 µM (inactive). For the same compound, the GI50 [17] was 1.9 µM (inactive), the GI50 [18] was 3.09 µM (inactive) and the GI50 [19] was 2.22 µM (inactive). The GI50 [20] was 1.72 µM (inactive).

For `COc1cc(/C=C\c2ccc(C)cc2)cc(OC)c1OC`, the GI50 [1] was 0.0244 µM (active), the GI50 [2] was 0.0652 µM (active) and the GI50 [3] was < 0.01 µM (active). The GI50 [4] was 0.00505 µM (active), the GI50 [5] was 0.00723 µM (active) and the GI50 [6] was < 0.01 µM (active). The GI50 [7] was 0.00783 µM (active), the GI50 [8] was 0.00371 µM (active) and the GI50 [9] was 0.0105 µM (active). The GI50 [10] was 0.0167 µM (active), the GI50 [11] was 0.00885 µM (active) and the GI50 [12] was 0.12 µM (active). For the same compound, the GI50 [13] was 0.00746 µM, the GI50 [14] was < 0.01 µM (active) and the GI50 [15] was 0.0731 µM (active). The GI50 [16] was 0.00904 µM (active), the GI50 [17] was 0.00296 µM (active) and the GI50 [18] was 0.00221 µM (active). For the same compound, the GI50 [19] was 0.0415 µM (active) and the GI50 [20] was 0.00336 µM (active).
